Results taken from patent publication US9969758B2, “Antimicrobial compounds” (BIOMERIEUX, priority 2014, dated 2018).
≈ marks a conversion by molar mass, not a printed value.

Assays:
Assay in all cases: MIC by agar dilution, single strains
Format in all cases: cell-based
[1] = test system: Providencia rettgeri NCTC 7475; details: NCTC7475, 22 hours of incubation, read-out: Minimum inhibitory concentration (MIC)
Description: (§1) Determining the minimum inhibitory concentrations (MIC). All the MICs were determined using an agar dilution method. This required use of a medium without a defined antagonist (peptone-free), prepared as described previously with the inclusion of 2% horse blood lysed with saponin, 25.0 μg/mL of NAD and 25.0 μg/mL of hemin [17]. The compounds tested were dissolved in sterile deionised water and incorporated into the agar medium in a concentration range of 0.0031 to 8.0 μg/mL (0.016 to 32 μg/mL for gram-positive bacteria). All the isolates were prepared at a density equivalent to 0.5 McFarland units in sterile deionised water using a densitometer (approximately 1.5×10^8 CFU/mL), and then diluted to 1 for 15. An aliquot of 1 μL of each diluted suspension was then placed onto plates with a multispot inoculator to give the final recommended inoculation of 10 000 CFU/spot. The MICs of fosfomycin were determined by the same method, except that the IsoSensitest medium (Oxoid, Basingstoke, United Kingdom) was used, plus 25.0 μg/mL of glucose-6-phosphate (Sigma, Poole, United Kingdom) and an extended range of fosfomycin concentrations. All the dishes (including the antimicrobial-free controls) were incubated for 22 hours at 37° C. All the tests were performed on at least two independent replicates in order to examine the reproducibility.

[2] = test system: Escherichia coli NCTC 10418; details: NCTC10418, 22 hours of incubation, read-out: Minimum inhibitory concentration (MIC)
Description: as §1

[3] = test system: Staphylococci epidermidis NCTC 11047; details: 22 hours of incubation, read-out: Minimum inhibitory concentration (MIC)
Description: as §1

[4] = test system: Salmonella enteritidis NCTC 6676; details: Salmonella enterica, 22 hours of incubation, read-out: Minimum inhibitory concentration (MIC)
Description: as §1

[5] = test system: Serratia marcescens NCTC 10211; details: NCTC10211, 22 hours of incubation, read-out: Minimum inhibitory concentration (MIC)
Description: as §1

[6] = test system: Pseudomonas aeruginosa NCTC 10662; details: NCTC10662, 22 hours of incubation, read-out: Minimum inhibitory concentration (MIC)
Description: as §1

[7] = test system: Klebsiella pneumoniae NCTC 9528; details: NCTC9528, 22 hours of incubation, read-out: Minimum inhibitory concentration (MIC)
Description: as §1

[8] = test system: Enterobacter cloacae NCTC 11936; details: NCTC11936, 22 hours of incubation, read-out: Minimum inhibitory concentration (MIC)
Description: as §1

[9] = test system: Salmonella typhimurium NCTC 74; details: Salmonella enterica, 22 hours of incubation, read-out: Minimum inhibitory concentration (MIC)
Description: as §1

[10] = test system: Enterococcus faecalis NCTC 775; details: NCTC775, 22 hours of incubation, read-out: Minimum inhibitory concentration (MIC)
Description: as §1

[11] = test system: Staphylococcus aureus NCTC 6571; details: NCTC6571, 22 hours of incubation, read-out: Minimum inhibitory concentration (MIC)
Description: as §1

[12] = test system: Yersinia enterocolitica NCTC 11176; details: NCTC11176, 22 hours of incubation, read-out: Minimum inhibitory concentration (MIC)
Description: as §1

[13] = test system: Enterococcus faecium NCTC 7171; details: NCTC7171, 22 hours of incubation, read-out: Minimum inhibitory concentration (MIC)
Description: as §1

[14] = test system: Listeria monocytogenes NCTC 11994; details: NCTC11994, 22 hours of incubation, read-out: Minimum inhibitory concentration (MIC)
Description: as §1

[15] = test system: Acinetobacter baumannii ATCC 19606; details: ATCC19606, 22 hours of incubation, read-out: Minimum inhibitory concentration (MIC)
Description: as §1

[16] = test system: Escherichia coli NCTC 12241; details: NCTC12241, 22 hours of incubation, read-out: Minimum inhibitory concentration (MIC)
Description: as §1

[17] = test system: Staphylococcus aureus NCTC 11939 (SARM); details: NCTC11939, 22 hours of incubation, read-out: Minimum inhibitory concentration (MIC)
Description: as §1

[18] = test system: Burkholderia cepacia ATCC 25416; details: ATCC25416, 22 hours of incubation, read-out: Minimum inhibitory concentration (MIC)
Description: as §1

Row | SMILES | MIC [1] [µg/mL] | MIC [2] [µg/mL] | MIC [3] [µg/mL] | MIC [4] [µg/mL] | MIC [5] [µg/mL] | MIC [6] [µg/mL] | MIC [7] [µg/mL] | MIC [8] [µg/mL] | MIC [9] [µg/mL] | MIC [10] [µg/mL] | MIC [11] [µg/mL] | MIC [12] [µg/mL] | MIC [13] [µg/mL] | MIC [14] [µg/mL] | MIC [15] [µg/mL] | MIC [16] [µg/mL] | MIC [17] [µg/mL] | MIC [18] [µg/mL]
1 | CSCC[C@H](N)C(=O)N[C@@H](CCl)C(=O)NC(C)P(=O)(O)O (stereo partly drawn) [compound H, L-methionyl-β-chloro-L-alanyl-D/L-fosfalin] | > 8 | 0.5 (≈ 1.38 µM) | 1 (≈ 2.76 µM) | > 8 | 0.25 (≈ 0.691 µM) | > 8 | 0.5 (≈ 1.38 µM) | 4 (≈ 11.1 µM) | > 8 | 0.032 (≈ 0.0884 µM) | 2 (≈ 5.53 µM) | 0.25 (≈ 0.691 µM) | 1 (≈ 2.76 µM) | > 8 | > 8 | 0.5 (≈ 1.38 µM) | > 8 | > 8
2 | CSCC[C@H](N)C(=O)N[C@@H](C)C(=O)NC(C)P(=O)(O)O (stereo partly drawn) [compound J, L-methionyl-L-alanyl-D/L fosfalin] | > 8 | 2 (≈ 6.11 µM) | 2 (≈ 6.11 µM) | > 8 | 0.5 (≈ 1.53 µM) | > 8 | 0.5 (≈ 1.53 µM) | > 8 | > 8 | 0.125 (≈ 0.382 µM) | 1 (≈ 3.05 µM) | 0.5 (≈ 1.53 µM) | 4 (≈ 12.2 µM) | > 8 | > 8 | 2 (≈ 6.11 µM) | > 8 | > 8
